System: patients suffering from radiation cystitis
Assay: Clinical observation of radiation cystitis patients after prostatic brachytherapy given oral Prelief® (CGP): average number of micturitions per night and symptoms
Type: in vivo, human
Conditions: for frequency of urination: six patients
From the text: This example depicts a method of using calcium glycerophosphate (CGP) in treating radiation cystitis in a clinical setting. Methods similar to that exemplified herein, however, is equally applicable to using any glycerophosphate salt in treating or preventing any type of hemorrhagic cystitis.
All six patients, aging from 51 to 74 year old at the time, were under prostatic brachytherapy treatment. […] Two Prelief® tablets, each containing about 0.335 gram CGP, were orally administered to each patient three times a day starting at about 0 to 8 months after the brachytherapy. […] Some patients were also treated with another therapy after the radiation, such as by a stent, or with the administration of AINES, Trospium Chloride, or Tamsulosina. On their post brachytherapy visitations, each patient was asked, among other things, the average number of micturitions per night.
This is in comparison to up to 12 times per night expected micturations in severe cases of this type when patients are given regular medications. The frequency of urination was further reduced by continuing oral administration of CGP.
14, 2002. […] Oral administration of CGP was again reported to be effective in reducing symptoms of hemorrhagic cystitis, e.g., the frequency of urination was reduced to about 7 times or about 2.5 times per night after oral administration of CGP for about 4 months or about 9 months, respectively, following the removal of the stent.

calcium glycerophosphate [CGP]
frequency of urination, patient #1 (patient #1, about 1 month following removal of a stent (increased symptoms)): about 11 times per night | frequency of urination, patient #1 (patient #1, about 3 months following brachytherapy, before oral CGP (baseline)): about 11 times per night | frequency of urination, patient #1 (patient #1, after oral administration of CGP for about 5 months): about 7 times per night | frequency of urination, patient #1 (patient #1, oral CGP for about 4 months following removal of the stent): about 7 times per night | frequency of urination, patient #1 (patient #1, oral CGP for about 9 months following removal of the stent): about 2.5 times per night | symptoms of radiation cystitis (reported by each of the six patients after oral administration of CGP): Reduced symptoms of radiation cystitis | pain in bladder (reported by the patients, oral CGP (data not shown)): reduced pain in bladder | frequency of urination (after oral administration of CGP for about three months): 4.5-7 times per night | frequency of urination (before oral administration of CGP (baseline)): 8-11 times per night | frequency of urination (succeeding seven months of oral CGP): 3-7 times per night

— US20100029590A1, “METHODS FOR TREATING OR PREVENTING HEMORRHAGIC CYSTITIS USING A GLYCEROPHOSPHATE SALT” (PRELIEF INC., priority 2007, published 2010)
